Measurements taken from patent US20090197906A1, “REVERSION OF MALIGNANT PHENOTYPE WITH 9-HYDROXY ELLIPTICINE DERIVATIVES” (priority 2006, published 2009).

What was measured:
NIH 3T3 EF cells [1] = experiment: wound healing assay (cell motility); format: cell-based; conditions: non cytotoxic concentrations
Description: Wound healing assay was performed to evaluate the effect of BA016DD537 on motility of malignant NIH 3T3 EF cells and melanoma cell lines B16F10 and B16BL6. All the cells were incubated at 37° C. in a humidified 5% CO2 atmosphere. About 100 000-200 000 cells were seeded in a 6-well culture plate and BA016DD537, at the different concentrations, was added 24 hours later. Cells were grown for 3 days to confluence about 90-95% and small scratch-wounds (about 200 μm-1 mm width) were made with a pipette tip. Cell debris were removed, then the cultures were incubated in complete medium for 10 h in the presence of the same concentration of BA016DD537. Then, the cells were fixed for 10 min in PBS containing 3.7% formaldehyde at 4° C.

[2] = test system: actin in NIH 3T3 EF extract; experiment: fluorescence anisotropy assay of actin dynamics in cell extract; format: biochemical; conditions: for effect on actin-F elongation rate constant and actin-F steady state value: NIH 3T3 EF cytosolic fractions; for k (rate constant of F-actin elongation) / Δ mA (anisotropy enhancement, steady state F-actin): malignant NIH 3T3 EF extract, compound at 200 nM
Description: Actin dynamics is known to be impaired in tumor cells with a subsequent decrease of F-actin to G-actin ratio. Actin dynamics has been quantified in tumor cell extracts using the fluorescence anisotropy assay which gains access to rate constant of F-actin elongation (k) and steady state concentration of F-actin (Δ mA).
All reactions were carried out at 22° C. and fluorescence anisotropy signal was recovered at 520 nm with excitation at 490 nm in a Beacon 2000 (Panvera). Alexa 488 actin (Molecular Probes) was centrifuged at 35 000 rpm for 2 h at 4° C. to sediment residual actin polymers in a Beckman L5-50B ultracentrifuge. […] 80% of the supernatant was withdrawn; the concentration was defined through fluorescence measurements (excitation at 490 nm and signal recovering at 520 nm). The ultracentrifuged actin concentration was calculated using the non ultracentrifuged Alexa 488 actin as a standard. The supernatant was aliquoted, frozen in liquid nitrogen and stored at −80° C.
Before experiment, an aliquot of ultracentrifuged Alexa 488 actin was diluted to a concentration of […] in G buffer (5 mM Tris pH 8.1, 2 mM CaCl2, 0.2 mM DTT, 0.2 mM ATP). 3 μl of diluted Alexa 488 actin was mixed in 168 μl of G buffer and actin monomers anisotropy was measured before the addition of 4 μl of polymerisation buffer (2.5 M KCl, 50 mM MgCl2, 25 mM ATP), 5 μl of G buffer in the presence or in the absence of the chemical molecule and 20 μl cellular extract of normal NIH 3T3 cells or malignant NIH 3T3 EF cells at 2 mg/ml. The final concentration of Alexa 488 actin was 4 nM. The ratio of unlabelled to labelled actin was about 140/4 nM. Measurements were made each 10 sec for 200 sec. Actin monomers anisotropy value was subtracted, yielding the anisotropy enhancement (Δ mA). The data were fitted with the equation Y=Ymax. [1−exp(−K.X)]. The curves start at zero and ascend to Ymax that corresponds to the steady state anisotropy value (Δ mA eq), with a rate constant K. Y is anisotropy values of which monomers anisotropy is subtracted and X is the time.

Melanoma B16 cells = experiment: antitumor activity, i.p. grafted B16 melanoma, survival; format: in vivo, B6D2F1 mice
Description: Antitumor activity against B16 melanoma can be assessed in mice using i.p. graft of malignant cells followed by i.p. treatment. This type of protocol which by-pass various biodisponibility parameters gives information roughly on the maximal antitumor activity which can be expected for a given tumor.
Melanoma B16 cells (4×10^5) were injected in B6D2F1 mice using i.p. route at J0. Drugs, dissolved in sterile distilled water (0.5 ml) were injected daily using as well i.p. route from J1 to J9 at various concentrations. Control mice received distilled water only according the same protocol.
Treated and control mice were counted daily. TIC (mean survival of treated mice/mean survival of control mice) was calculated at J9.

NIH 3T3 EF cells [3] = experiment: F-actin network rescue, FITC-phalloidin fluorescence microscopy; format: cell-based; conditions: non cytotoxic concentrations (100 nM and 200 nM), three days
Description: Malignant NIH 3T3 EF cells were seeded onto glass cover slips at a density of 2000 cells per cm^2. The next day, BA016DD537 was applied to NIH 3T3 EF cells at various non cytotoxic concentrations (100 nM and 200 nM). Three days later, cells were fixed for 10 min in PBS containing 3.7% formaldehyde at 4° C. before examination with a fluorescence microscope. The formaldehyde solution was neutralized with 50 mM NH4Cl. Extraction was carried out for 4 min with 0.4% Triton X-100 in PBS. Cells were incubated for 1 h with blocking buffer (3% bovine serum albumin in PBS) and then for 20 min with FITC-phalloidin (Sigma) at room temperature. Cover slips were mounted in Vectashieldk (Zymed) and observed through a fluorescence microscope (Nikon).

B16F10 [4] = experiment: MTT cell proliferation assay; format: cell-based, murine; conditions: Mus musculus, B16-F10; B16F10 (Example 11); read-out: IC50 (MTT Test-72 h)
Description: Growth studies were performed using the [3-(4,5 dimethylthiazol-2-yl)-2,5-diphenyl-2H-tetrazolium bromide] (Sigma) calorimetric assay.
About 1500 to 5000 cells, according to the cell line, were seeded in a 96-well culture plate 24 hours before adding increasing concentrations of BA016DD537 or BA016FZ539. The plate was incubated at 37° C. for 3 days. 10 μl MTT stock solution (5 mg/ml in phosphate buffer saline) was added to 90 μl of complete medium in each well, the incubation was continued for 3 h at 37° C. 100 μl of lysis buffer (10% sodium dodecyl sulfate, 1% HCl 1N; pH 4.7) was added to each well, and the plate was incubated overnight. The absorbance was determined using an Integrated EIA Management System (Labsystem) at a wavelength of 570 nm. The proliferation rates were calculated from the OD readings using the untreated cells as 100%.
(§1) Growth studies were performed using both MTT and SRB calorimetric assay (Sigma). About 1500 B16F10 or 3000 pancreatic cells (MIA PaCa-2 and PANC1) were seeded in a 96-well culture plate before adding increasing concentrations of monomesylate or bimesylate.
(§2) The plates were incubated at 37° C. for 3 days and then were treated depending on SRB or MTT protocols (see material and methods).
(§3) In these two cases, the proliferation rates were calculated from the OD readings using the untreated cells as 100%.

PANC-1 = experiment: SRB (sulforhodamine B) cell proliferation assay; format: cell-based, human; conditions: Homo sapiens; PANC-1 (Example 11); read-out: IC50 (SRB Test-72 h)
Description: (§4) After an incubation period, cell monolayers are fixed with 10% (wt/vol) trichloroacetic acid and stained for 30 min, after which the excess dye is removed by washing repeatedly with 1% (vol/vol) acetic acid. The protein-bound dye is dissolved in 10 mM Tris base solution for optic density determination (OD) at 510 nm using a microplate reader.
(§5) The proliferation rates were calculated from the OD readings using the untreated cells as 100%.
(§6) The effects BA016FZ539 on the growth of MIA PaCa-2 and PANC-1 pancreatic cells were tested over a range of concentrations from 500 μM to 0.16 μM and measured by using the SRB calorimetric assay.
(§7) About 5000 MIA PaCa-2 or PANC-1 cells were seeded in a 96-well culture plate while adding increasing concentrations of BA016FZ539.
as §1, §2, §3

Mia Paca-2 = experiment: SRB (sulforhodamine B) cell proliferation assay; format: cell-based, human; conditions: Homo sapiens; Mia Paca-2 (Example 11); read-out: IC50 (SRB Test-72 h)
Description: as §4, §5, §6, §7, §1, §2, §3

B16F10 [5] = experiment: cloning assay in methylcellulose (colony formation); format: cell-based, murine; conditions: Mus musculus, B16-F10, 216 h; B16F10, clones counted after 9 days (Example 11); read-out: B16F10 Inhibition of colony formation IC50
Description: Cells were embedded in complete culture medium supplemented with 0.8% methylcellulose (Methocel MC4000, Sigma), seeded in triplicate into 35-mm dishes (Greiner Bio-one Ref 627102, Dominique Dutscher) and incubated at 37° C. in a humidified 5% CO2 atmosphere. The number of cells seeded was 1000 cells per dish. After one to three weeks, according to cell lines, macroscopic clones were counted.
Cells were embedded in complete culture medium supplemented with 0.8% methyl-cellulose (Methocel MC4000, Sigma), seeded in triplicate into 35-mm dishes and incubated at 37° C. in a humidified 5% CO2 atmosphere. The number of cells seeded was 1000 cells per dish. After 9 days, macroscopic clones of murine melanoma cell line B16F10 were counted.

B16F10 [6] = experiment: SRB (sulforhodamine B) cell proliferation assay; format: cell-based, murine; conditions: Mus musculus, B16-F10; B16F10 (Example 11); read-out: IC50 (SRB Test-72 h)
Description: as §1, §2, §3

[7] = test system: B16BL6 melanoma cell line; experiment: MTT cell viability, combination with retinoids; format: cell-based; conditions: 10 nM retinoid only, 3 days
Description: The ex vivo cell viability inhibition by BA016DD537 in the presence of the retinoids 13CRA and ATRA was tested against B16BL6 melanoma cell line using the 3-(4,5 dimethylthiazol-2-yl)-2,5-diphenyl-2H-tetrazolium bromide (MTT) calorimetric assay.
About 1000 cells were seeded in a 96-well culture plate 24 hours before adding increasing concentrations of BA016DD537, from 1 pM to 100 pM, in the absence or in the presence of 10 nM of retinoids. The plate was incubated at 37° C. for 3 days. 10 μl MTT stock solution (5 mg/ml in phosphate buffer saline) was added to 90 μl of complete medium in each well, the incubation was continued for 3 h at 37° C. 100 μl of lysis buffer (20% sodium dodecyl sulfate, 10 mM HCl, 1×PBS) was added to each well, and the plate was incubated overnight. The absorbance was determined using an Integrated EIA Management System (Labsystem) at a wavelength of 570 nm.

SMILES	migration of treated malignant cells into the wound (NIH 3T3 EF cells [1])	effect on actin-F elongation rate constant and actin-F steady state value [2]	k (rate constant of F-actin elongation) [2]	Δ mA (anisotropy enhancement, steady state F-actin) [2]	rebuilding of actin network / morphology (NIH 3T3 EF cells [3])	cell viability inhibition (MTT) [7]	further results
Cc1c2cc[n+](C)cc2c(C)c2c1[nH]c1ccc(O)cc12 [BA016CA77, 9-hydroxy-2(beta-methyl)-ellipticinium acetate]	migrate in the same way as non treated malignant cells	do not increase the actin-F elongation rate constant and the actin-F steady state value	0.0416 s⁻¹	38.33	neither 9-hydroxy-2-ethyl)-ellipticinium acetate, nor 9-hydroxy-2(methyl)-ellipticinium acetate (Celiptium) were found active		T/C (%) (mean survival of treated mice/mean survival of control mice) (Melanoma B16 cells; 0.125 mg/kg/inj. i.p. daily J1 to J9): 121%; T/C (%) (mean survival of treated mice/mean survival of control mice) (Melanoma B16 cells; 0.25 mg/kg/inj. i.p. daily J1 to J9): 122%; T/C (%) (mean survival of treated mice/mean survival of control mice) (Melanoma B16 cells; 0.5 mg/kg/inj. i.p. daily J1 to J9): 58%; antitumor activity against B16 melanoma (T/C>125% = significant) (Melanoma B16 cells; i.p. graft, i.p. treatment): no significant antitumor activity
Cc1c2cc[n+](CCN3CCCCC3)cc2c(C)c2c1[nH]c1ccc(O)cc12 [Bimesylate]							IC50 (B16F10 [4]): 2800 nM; IC50 (PANC-1): 37.6 µM; IC50 (Mia Paca-2): 2500 nM; IC50 (B16F10 [5]): 21 nM; IC50 (B16F10 [6]): 1800 nM
CC1=C(/C=C/C(C)=C/C=C/C(C)=C/C(=O)O)C(C)(C)CCC1 [ATRA, all-transretinoic acid, reference compound]						No cell viability inhibition	
CC1=C(/C=C/C(C)=C/C=C/C(C)=C\C(=O)O)C(C)(C)CCC1 [13CRA, 13-cis-retinoic acid, reference compound]						No cell viability inhibition	
CC(=O)[O-].CC[n+]1ccc2c(C)c3[nH]c4ccc(O)cc4c3c(C)c2c1 [BA016CA107, 9-hydroxy-2(beta-ethyl)-ellipticinium acetate]	migrate in the same way as non treated malignant cells	do not increase the actin-F elongation rate constant and the actin-F steady state value	0.0280 s⁻¹	42.14	neither 9-hydroxy-2-ethyl)-ellipticinium acetate, nor 9-hydroxy-2(methyl)-ellipticinium acetate (Celiptium) were found active		
